≈ marks a conversion by molar mass, not a printed value.

One assay has as its system Staphylococcus aureus. In words: Antibacterial activity against Staphylococcus aureus ATCC 29213 assessed as bacterial growth inhibition incubated for 24 hrs by photometric analysis. The class given is functional.
A short description of assay [1]: Immunosuppressive activity against B cell (unknown origin) assessed as inhibition of LPS-induced cell proliferation. It counts as functional, cell-based.

Broadly, the MIC50 is the lowest concentration that inhibits either 50% of growth or 50% of the strains tested, depending on the study. Turning to `CC1=C2[C@@H]3CC(C)(C)C[C@@H]3[C@H](O[C@@H]3OC[C@@H](O)[C@H](O)[C@H]3O)[C@@]2(C)CC1=O`, the MIC50 in the assay with Staphylococcus aureus is 69 µM (≈ 25.3 µg/mL).
`CC1=C2[C@@H]3CC(C)(C)C[C@@H]3[C@H](O[C@@H]3O[C@H](CO)[C@@H](O)[C@H](O)[C@H]3O)[C@@]2(C)CC1=O`: the MIC50 in the assay on Staphylococcus aureus is 35 µM (≈ 13.9 µg/mL).
Turning to `CC1(C)C[C@H]2[C@@H](C1)C1=CC(=O)C[C@]1(C)[C@H]2O[C@@H]1O[C@H](CO)[C@@H](O)[C@H](O)[C@H]1O`, the MIC50 in the assay on Staphylococcus aureus stood at 34 µM (≈ 13 µg/mL).
The IC50 is the concentration that gives 50% inhibition. Consider `CCCCCC[C@@H](O)C(=O)O[C@@H]1[C@@H]2[C@H](CC1(C)C)[C@H](O)[C@@]1([C@H](O)C(=O)OC)OCC(=O)[C@@]21C`, for which, in assay [1], the IC50 is 6.6 µM.

(Values after ChEMBL document CHEMBL5360596, “Triquinane Sesquiterpene Glycosides from the Basidiomycete Antrodiella zonata” (J Nat Prod, 2023).)
